Measured values taken from the NIST ThermoML archive (doi:10.1016/j.fluid.2018.10.006).

Conditions: Fluid (supercritical or subcritical phases), Coaxial cylinder method

CCCCCC [hexane]
thermal conductivity [W/m/K]
Conditions | 525.42 K | 553 K
1000 kPa | – | 0.04354
1120 kPa | – | 0.0439
1400 kPa | – | 0.04407
1500 kPa | – | 0.04431
1600 kPa | – | 0.04443
1700 kPa | – | 0.04455
1800 kPa | – | 0.0448
1900 kPa | – | 0.04493
2000 kPa | – | 0.04518
2100 kPa | – | 0.04543
2200 kPa | – | 0.04556
2300 kPa | – | 0.04582
2400 kPa | – | 0.04608
2500 kPa | – | 0.04635
2600 kPa | – | 0.04661
2700 kPa | – | 0.04688
2800 kPa | – | 0.04716
2900 kPa | – | 0.04743
3000 kPa | – | 0.04743
3100 kPa | – | 0.04814
3200 kPa | – | 0.04857
3300 kPa | – | 0.04897
3400 kPa | – | 0.04942
3500 kPa | – | 0.05003
3600 kPa | – | 0.0505
3700 kPa | – | 0.05127
3800 kPa | – | 0.05191
3900 kPa | – | 0.05255
4000 kPa | – | 0.05325
4100 kPa | – | 0.05395
4200 kPa | – | 0.05468
4268 kPa | – | 0.05523
4390 kPa | – | 0.05618
4700 kPa | – | 0.0589
4800 kPa | – | 0.05987
4900 kPa | – | 0.06075
5000 kPa | – | 0.06166
5300 kPa | – | 0.06418
5500 kPa | – | 0.06559
5800 kPa | – | 0.06746
6000 kPa | – | 0.06843
6300 kPa | – | 0.06974
6500 kPa | – | 0.07019
6800 kPa | – | 0.07109
7000 kPa | – | 0.0717
7200 kPa | – | 0.07202
7500 kPa | – | 0.07265
7800 kPa | – | 0.07329
8000 kPa | – | 0.07361
8300 kPa | – | 0.07427
8500 kPa | – | 0.07427
8800 kPa | – | 0.07545
9000 kPa | – | 0.07545
9250 kPa | – | 0.07562
9500 kPa | – | 0.07582
9800 kPa | – | 0.07617
9900 kPa | 0.07737 | –
10000 kPa | – | 0.07635
10150 kPa | 0.07772 | –
10200 kPa | 0.07779 | –
10300 kPa | 0.07793 | 0.07652
10400 kPa | 0.07804 | –
10500 kPa | 0.07815 | 0.07688
10600 kPa | 0.07833 | –
10800 kPa | 0.07855 | 0.07716
11000 kPa | – | 0.0773
11500 kPa | 0.07941 | 0.07777
11600 kPa | 0.07956 | –
11800 kPa | 0.07975 | –
12000 kPa | 0.07994 | 0.07832
12300 kPa | 0.08032 | 0.07869
12500 kPa | 0.08048 | –
12870 kPa | – | 0.07914
13500 kPa | – | 0.07983
14000 kPa | – | 0.08021
14500 kPa | – | 0.08068
15000 kPa | – | 0.08119
